# Results published in patent US20180133221A1, “ADMINISTRATION OF UBIQUITIN-ACTIVATING ENZYME INHIBITOR AND CHEMOTHERAPEUTIC AGENTS” (Millennium Pharmaceuticals, Inc., priority 2014, published 2018).
# Read-outs that look alike come from different tables or passages of the source.
# Key:
# [1] = test system: CTG-0486 human ovarian xenograft; type: in vivo; details: for Tumor Volume Day 21: in mm³ (unit assumed)
# Description: The CTG-0486 model of human ovarian xenograft model was established from a patient-derived tumor collected during surgery from a person with ovarian cancer (serous adenocarcinoma, metastases to the small bowel). CTG-0486 tumor fragments (approximately 2×2×3 mm^3) are implanted into the subcutaneous space in the right dorsal flank of female Mus musculus/nu/nu mice (age 6-9 weeks, Harlan Laboratories, Madison, Wis., USA) using a 13-gauge trocar needle. When the mean tumor volume reached approximately 260 mm3, the animals were randomized into 8 treatment groups (n=5/group).
# […] The once weekly schedule is also described as every 7 days (Q7D).
# (§1) Compound 1 [((1R,2R,3S,4R)-2,3-dihydroxy-4-(2-(3-(trifluoromethylthio)-phenyl)pyrazolo[1,5-a]pyrimidin-7-ylamino)cyclopentyl)methyl sulfamate] is formulated in 10-20% HPbCD in sterile water and administered intravenously (IV) or subcutaneously (SC) on a BIW (twice/week schedule; Monday and Thursday or Tuesday and Friday) for either 2-4 weeks.
# (§2) Tumors were measured twice weekly using vernier calipers. Tumor volumes were calculated using the standard formula V=W^2×L/2,). When mean tumor volumes reached approximately 200 mm^3 for PHTX-24C, 220 mm^3 for PHTX-Lu132, 150 mm^3 for CTG-0256, 260 mm^3 for CTG-0486, 185 mm^3 for PHTX-17C, 260 mm^3 for CTG-0165, 150 mm^3 for PHTX-14B in the study of Compound 1 and paclitaxel, 180 mm^3 for PHTX-14B in the study of Compound 1 and docetaxel, 200 mm^3 for SKOV-3, 220 mm^3 for PHTX-02B in the study of Compound 1 and docetaxel, 250 mm^3 for PHTX-02B in the study of Compound 1 and paclitaxel, 195 mm^3 for CTG-0159, 180 mm^3 for CTG-0012 or 150 mm^3 for Calu-6, mice were randomized into groups of n=5-7/arm as described in the tables below, and injected with vehicle, Compound 1 or agents (docetaxel, paclitaxel, oxaliplatin, cisplatin or carboplatin), or the combination of Compound 1 plus one of the agents, at various doses and schedules as described in tables below. Tumor size and body weight were measured approximately twice a week for the duration of the study. Mice are euthanized when their tumor volume reached 10% of their body weight, or when the average tumor volume of a treatment or control group reached approximately 2000 mm^3. Tumor growth continued to be monitored after the dosing period in some studies. Average tumor volume is reported as a function of time for selected arms of selected studies in the Figures.
# (§3) Measurements from day 0 to day 14, day 19, day 21, or day 28 are analyzed as specified in Tables below. All tumor volumes have a value of 1 added to them before log10 transformation. For each animal, the log tumor volume at day 0 is subtracted from the log tumor volume on the subsequent days. This difference vs. time is used to calculate an area under the curve (AUC) for each animal using the trapezoid rule. […] The synergy score for the combination of agents A and B is defined as
# (§4) 100*(mean(AUCAB)−mean(AUCA)−mean(AUCB)+mean(AUCctl))/mean(AUCctl):
# (§5) where AUCAB, AUCA, AUCB, and AUCctl are the AUC values for animals in the combination group, the A group, the B group, and the control group, respectively. The standard error of the synergy score is computed based on the variation in the AUC values among the animals. […] If the P-value is above 0.05, then the combination is considered to be additive. If the P-value is below 0.05, and the synergy score is less than zero, then the combination is considered to be synergistic.
# [2] = test system: PHTX-132Lu non-small cell lung xenograft; details: for Tumor Volume Day 21: in mm³ (unit assumed)
# Description: The PHTX-132Lu non-small cell lung xenograft model was established from a patient-derived tumor collected during surgery from a person with lung cancer (Poorly Differentiated Adenocarcinoma). PHTX-132Lu tumor fragments (approximately 2×2×3 mm^3) are implanted into the subcutaneous space in the right dorsal flank of female CB-17 SCID mice (age 10 weeks, Charles River Laboratory, Wilmington, Mass.) using a 13-gauge trocar. When the mean tumor volume reached approximately 220 mm^3, the animals were randomized into 12 treatment groups (n=5/group).
# (§6) Carboplatin (Teva Pharmaceuticals) is formulated in 0.9% saline and administered by IP injection once weekly (QW) at 25, 50, 60, and 75 mg/kg. The once weekly schedule is also described as every 7 days (Q7D).
# as §1, §2, §3, §4, §5
# [3] = test system: CTG-0159 human lung NSCLC xenograft; test: CTG-0159 xenograft model, Compound 1 and docetaxel; type: in vivo, Mus musculus/nu/nu mice; details: for Tumor Volume Day 21: in mm³ (unit assumed)
# Experimental: (§7) Docetaxel (Henry Schein, Inc., Pittsburgh Pa.) is formulated in 0.9% saline and administered by intravenous injection (IV) once weekly (QW) at 5 mg/kg or 10 mg/kg. […] Tumors were measured twice weekly using vernier calipers.
# [4] = test system: CTG-0012 human primary triple negative breast cancer model; test: CTG-0012 xenograft model, Compound 1 and paclitaxel; type: in vivo, Mus musculus/nu/nu mice; details: for Tumor Volume Day 21: in mm³ (unit assumed)
# Experimental: Paclitaxel (Bristol-Myers Squibb Company) is formulated in 0.9% saline and administered by intravenous injection (IV) on every 4 days (Q4D) or once weekly (QW) at 10 and 20 mg/kg. […] Tumors were measured twice weekly using vernier calipers.
# [5] = test system: PHTX-02B breast xenograft; test: PHTX-02B xenograft model, Compound 1 and docetaxel; type: in vivo, SCID-NOD mice; details: for Tumor Volume Day 21: in mm³ (unit assumed)
# Experimental: as §7
# [6] = test system: SKOV-3 ovarian cell-line derived xenograft; test: SKOV-3 xenograft model, Compound 1 and carboplatin; type: in vivo, nude mice; details: for Tumor Volume Day 14: in mm³ (unit assumed)
# Experimental: SKOV-3 is an ovarian cell-line derived xenograft. Ten week old female nude mice (Taconic Farms, Inc) were inoculated subcutaneously in flank (cell suspension) with 4.0×10^6 SKOV-3 cells suspended in serum free DMEM+Matrigel. When the mean tumor volume reached approximately 200 mm^3, the animals were randomized into 12 treatment groups (n=5/group).
# as §6, §1, §2, §3, §4, §5
# [7] = single agent Compound 1 IV at 5, 10 and 15 mg/kg BIW
smiles,measurement,setting,value
"NS(=O)(=O)OC[C@H]1C[C@@H](Nc2ccnc3cc(-c4cccc(SC(F)(F)F)c4)nn23)[C@H](O)[C@@H]1O [Compound 1, ((1R,2R,3S,4R)-2,3-dihydroxy-4-(2-(3-(trifluoromethylthio)phenyl)pyrazolo[1,5-a]pyrimidin-7-ylamino)cyclopentyl)methyl sulfamate]",Tumor Volume Day 21,[1]; 6.25 mg/kg Compound 1 BIWx3 SC,476.9
same,Tumor Volume Day 21,[1]; 15 mg/kg Compound 1 BIWx3 SC,131.9
same,Tumor Volume Day 21,[1]; 20 mg/kg Compound 1 BIWx3 SC,92.7
same,Tumor Volume Day 21,[1]; 25 mg/kg Compound 1 BIWx3 SC,151.7
same,tolerability,"[1]; 20 and 25 mg/kg doses of Compound 1, SC BIW",not tolerated
same,anti-tumor activity compared to vehicle control,"[1]; single agent Compound 1 SC at 6.25, 15, 20 and 25 mg/kg BIW for 3 weeks",modest to strong anti-tumor activity
same,Tumor Volume Day 21,[2]; 5 mg/kg Compound 1 BIWx3 IV,882.7
same,Tumor Volume Day 21,[2]; 10 mg/kg Compound 1 BIWx3 IV,653.5
same,Tumor Volume Day 21,[2]; 15 mg/kg Compound 1 BIWx3 IV,483.7
same,anti-tumor activity compared to vehicle control,[2]; [7],modest anti-tumor activity
same,Tumor Volume Day 21,[3]; 6.25 mg/kg Compound 1 BIWx3 IV,1618.9
same,Tumor Volume Day 21,[3]; 15 mg/kg Compound 1 BIWx3 IV,2373.2
same,Tumor Volume Day 21,[3]; 20 mg/kg Compound 1 BIWx3 IV,1376.2
same,tumor growth,"[3]; Compound 1 alone at 20, 15, and 6.25 mg/kg IV BIW",did not inhibit tumor growth
same,Tumor Volume Day 21,[4]; 6.25 mg/kg Compound 1 BIWx3 IV,815
same,Tumor Volume Day 21,[4]; 15 mg/kg Compound 1 BIWx3 IV,185
same,Tumor Volume Day 21,[4]; 20 mg/kg Compound 1 BIWx3 IV,47.4
same,anti-tumor activity compared to vehicle control,"[4]; single agent Compound 1 IV at 6.25, 15, and 20 mg/kg BIW for 3 weeks",modest to strong anti-tumor activity
same,Tumor Volume Day 21,[5]; 7.5 mg/kg Compound 1 BIWx3 SC,596.5
same,Tumor Volume Day 21,[5]; 15 mg/kg Compound 1 BIWx3 SC,324.8
same,Tumor Volume Day 21,[5]; 20 mg/kg Compound 1 BIWx3 IV,178.8
same,Tumor Volume Day 21,[5]; 20 mg/kg Compound 1 BIWx3 SC,185
same,tumor growth compared to the vehicle control group,"[5]; single agent Compound 1 SC at 7.5, 15 and 20 mg/kg BIW, IV also 20 mg/kg BIW",inhibited tumor growth
same,Tumor Volume Day 14,[6]; 5 mg/kg Compound 1 BIWx2 IV,857.2
same,Tumor Volume Day 14,[6]; 10 mg/kg Compound 1 BIWx2 IV,883
same,Tumor Volume Day 14,[6]; 15 mg/kg Compound 1 BIWx2 IV,919.2
same,anti-tumor activity compared to vehicle control,[6]; [7],modest anti-tumor activity
